Data from patent US20260115187A1, “TRICYCLIC SKELETON COMPOUND AND USE THEREOF IN PREPARATION OF ANTITUMOR DRUG” (ZHONGSHAN HOSPITAL, FUDAN UNIVERSITY, priority 2024, published 2026).
Read-outs that look alike come from different tables or passages of the source.

What was measured:
[1] = test system: PLC/PRF/5 KSR2 OE (PLC cells overexpressing KSR2); assay: Cell IC50 assay (CCK8 cell viability), PLC/PRF/5 KSR2 OE; format: cell-based; settings: Homo sapiens, read-out: IC50 value of cell viability, PLC/PRF/5 KSR2 OE (PLC cells overexpressing KSR2)
Procedure: (§1) (1) Cell Preparation: Hepatoma cells (PLC/PRF/5, sourced from the Chinese Academy of Sciences; MHCC97H, sourced from this research institute) in good growth condition are prepared. The cells are trypsinized, diluted, and seeded into 96-well cell culture plates. 1,000-3,000 cells are added per well. The plates are then placed in a cell culture incubator at 37° C. with 5% CO2. Drugs are added after the cells have adhered for 24 h.
(§2) (2) Drug Addition: The drugs are subjected to gradient dilution, typically setting 9 concentrations. Control groups containing no drug medium and medium containing only the drug solvent are also set up. The diluted drugs are added to the cell culture plates seeded the previous day. The plates are incubated for 72 h.
(§3) (3) CCK8 Assay for Cell Viability: CCK8 is mixed with culture medium at a 1:10 ratio. 100 μL of this mixture is added to each well of the cell culture plate. After incubating for 2-4 h, the OD values are measured using a microplate reader.
(§4) (4) Data Analysis: Based on the corresponding OD values, the data are compiled, IC50 curves are plotted, and the IC50 values are obtained.
(§5) (5) IC50 Verification: The theoretical IC50 value is identified from the IC50 curve. Drug concentrations at ½ times, 1 time, and 2 times this theoretical value are used for verification.

[2] = test system: MHCC97H KSR2 OE (97H cells overexpressing KSR2); assay: Cell IC50 assay (CCK8 cell viability), MHCC97H KSR2 OE; format: cell-based; settings: Homo sapiens
Procedure: as §1, §2, §3, §4, §5

[3] = PLC-PRF-5, hepatoma cells, 72 h incubation, CCK8
[4] = hepatoma cells, 72 h incubation, CCK8, read-out: IC50 value of cell viability, MHCC97H KSR2 OE (97H cells overexpressing KSR2)
[5] = read-out: IC50 value of cell viability, MHCC97H KSR2 OE (97H cells overexpressing KSR2)

## CCN1CCN(C2CCN(CCCNC(=O)c3nn(C)c4c3COc3cc(-c5cnn(C)c5)ccc3-4)CC2)CC1 [Compound 133]
[1]; [3]
  IC50: 2 µM
[2]; [4]
  IC50: 1 µM

## CN1CCN(C2CN(CCCNC(=O)c3c4c(nn3C)-c3ccc(OC(F)(F)F)cc3OC4)C2)CC1 [Compound 108]
[1]; [3]
  IC50: 5 µM
[2]; [4]
  IC50: 8 µM

## Cn1nc(C(=O)NCCCN2CCN(Cc3ccccc3)CC2)c2c1-c1ccccc1SC2 [Compound 10]
[1]; PLC-PRF-5, 72 h
  IC50: 16 µM
[2]; [5]
  IC50: 38 µM

## CN1CCN(C2CCN(CCCNC(=O)c3nn(C)c4c3COc3cc(-c5cnn(C)c5)ccc3-4)CC2)CC1 [Compound 95]
[1]; [3]
  IC50: 2 µM
[2]; [4]
  IC50: 2 µM

## Cn1nc(C(=O)N2CC(CN3CCC(N4CCCC4)CC3)C2)c2c1-c1ccccc1SC2 [Compound 49]
[1]; [3]
  IC50: 7 µM
[2]; [4]
  IC50: 7 µM

## CC(=O)N1CCN(C2CCN(CCCNC(=O)c3nn(C)c4c3CSc3ccccc3-4)CC2)CC1 [Compound 59]
[1]; [3]
  IC50: 11 µM
[2]; [4]
  IC50: 31 µM

## Cn1nc(C(=O)NCC(F)(F)CN2CCC(N3CCCCC3)CC2)c2c1-c1ccccc1SC2 [Compound 34]
[1]; [3]
  IC50: 12 µM
[2]; [4]
  IC50: 14 µM

## CN1CCN(C2CCN(CCCNC(=O)c3nn(C)c4c3COc3cc(C#N)ccc3-4)CC2)CC1 [Compound 94]
[1]; [3]
  IC50: 7 µM
[2]; [4]
  IC50: 10 µM

## Cn1nc(C(=O)NCCCN2CCN(c3cccnc3)CC2)c2c1-c1ccccc1SC2 [Compound 20]
[1]; [3]
  IC50: 29 µM
[2]; [4]
  IC50: 32 µM

## CN1CCN(C2CCN(CCCNC(=O)c3n[nH]c4c3COc3cc(C(F)(F)F)c(C#N)cc3-4)CC2)CC1 [Compound 130]
[1]; [3]
  IC50: 10 µM
[2]; [4]
  IC50: 4 µM

## CCN1CCN(C2CN(C3CC(CNC(=O)c4nn(C)c5c4CSc4cc(Cl)ccc4-5)C3)C2)CC1 (stereo not shown) [Compound 111]
[1]; [3]
  IC50: 6 µM
[2]; [4]
  IC50: 9 µM

## Cn1nc(C(=O)NCCCN2CCC(c3ccccc3)CC2)c2c1-c1ccccc1SC2 [Compound 31]
[1]; [3]
  IC50: 21 µM
[2]; [4]
  IC50: 19 µM

## CN1CCN(C2CN(CCCNC(=O)c3nn(C)c4c3COc3cc(Cl)ccc3-4)C2)CC1 [Compound 86]
[1]; [3]
  IC50: 6 µM
[2]; [4]
  IC50: 6 µM

## Cn1nc(C(=O)NCCCN2CCN(C3CCOCC3)CC2)c2c1-c1ccccc1SC2 [Compound 2]
[1]; PLC-PRF-5, 72 h
  IC50: 84 µM
[2]; [5]
  IC50: > 100 µM

## Cn1nc(C(=O)NCCCN2CCN(c3ccc(C(F)(F)F)cc3)CC2)c2c1-c1ccccc1SC2 [Compound 26]
[1]; [3]
  IC50: 14 µM
[2]; [4]
  IC50: > 100 µM

## CN1CCN(C2CN(C3CC(CNC(=O)c4nn(C)c5c4COc4cc(Cl)ccc4-5)C3)C2)CC1 (stereo not shown) [Compound 99]
[1]; [3]
  IC50: 9 µM
[2]; [4]
  IC50: 17 µM

## CCN1CCN(C2CN(CCCNC(=O)c3nn(C)c4c3CSc3ccccc3-4)C2)CC1 [Compound 81]
[1]; [3]
  IC50: 26 µM
[2]; [4]
  IC50: 11 µM

## Cc1ccc2c(c1)OCc1c(C(=O)NCCCN3CC(N4CCN(C)CC4)C3)nn(C)c1-2 [Compound 121]
[1]; [3]
  IC50: 18 µM
[2]; [4]
  IC50: 20 µM

## CCN1CCN(C2CCN(CCCNC(=O)c3n[nH]c4c3COc3cc(C(F)(F)F)c(C#N)cc3-4)CC2)CC1 [Compound 132]
[1]; [3]
  IC50: 4 µM
[2]; [4]
  IC50: 1 µM

## Cc1ccc2c(c1)OCc1c-2nn(C)c1C(=O)NCCCN1CCC(N2CCN(C)CC2)CC1 [Compound 116]
[1]; [3]
  IC50: 18 µM
[2]; [4]
  IC50: 7 µM

## CN(C)CC1CCN(CCCNC(=O)c2nn(C)c3c2CSc2ccccc2-3)C1 (stereo not shown) [Compound 53]
[1]; [3]
  IC50: 92 µM
[2]; [4]
  IC50: 63 µM

## Cn1nc(C(=O)NCCCN2CCC(N)CC2)c2c1-c1ccccc1SC2 [Compound 55]
[1]; [3]
  IC50: 4 µM
[2]; [4]
  IC50: 5 µM

## CN(Cc1ccccc1)C1CCN(CCCNC(=O)c2nn(C)c3c2CSc2ccccc2-3)CC1 [Compound 65]
[1]; [3]
  IC50: 8 µM
[2]; [4]
  IC50: 14 µM
